Measurements from ChEMBL document CHEMBL2169843 (J Med Chem, 2012).

The molecules below were run against Sigma non-opioid intracellular receptor 1 (Cavia porcellus, UniProt Q60492) (assay: Displacement of [3H]-(+)-pentazocine from sigma-1 receptor in guinea pig brain homogenates).
Assay type: tissue-based

Chain of Sigma non-opioid intracellular receptor 1 (Q60492 whole entry): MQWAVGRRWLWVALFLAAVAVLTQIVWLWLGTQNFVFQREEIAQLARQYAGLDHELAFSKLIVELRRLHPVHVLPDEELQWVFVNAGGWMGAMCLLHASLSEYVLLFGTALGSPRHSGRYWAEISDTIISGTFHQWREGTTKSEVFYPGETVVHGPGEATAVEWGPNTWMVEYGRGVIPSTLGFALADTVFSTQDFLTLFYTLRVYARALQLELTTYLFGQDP

Point of comparison: `c1ccc(CNCC[C@@H]2CCO[C@H](c3ccccc3)O2)cc1`, Ki 6 nM. Against it:
- C[C@@]1(c2ccccc2)OCC[C@@H](CCNCc2ccccc2)O1 — 2.8-fold higher, 17 nM
- CC(C)(C)[C@]1(c2ccccc2)OCC[C@H](CCNCc2ccccc2)O1 — 42-fold higher, 253 nM
- C[C@@]1(c2ccccc2)OCC[C@@H](CCN)O1 — higher, > 10000 nM
- C[C@]1(c2ccccc2)OCC[C@H](CCN)O1 — higher, > 10000 nM
- CCC[C@]1(c2ccccc2)OCC[C@H](CCNCc2ccccc2)O1 — 23-fold higher, 136 nM
- CC[C@@]1(c2ccccc2)OCC[C@@H](CCNCc2ccccc2)O1 — 3.3-fold higher, 20 nM
- CC(C)(C)[C@@]1(c2ccccc2)OCC[C@@H](CCNCc2ccccc2)O1 — 21-fold higher, 128 nM
- CC[C@@]1(c2ccccc2)OCC[C@@H](CCN)O1 — higher, > 10000 nM
- CC(C)(C)[C@@]1(c2ccccc2)OCC[C@@H](CCN)O1 — higher, > 10000 nM
- CCC[C@]1(c2ccccc2)OCC[C@H](CCN)O1 — higher, > 10000 nM
- NCC[C@H]1CCO[C@@H](c2ccccc2)O1 — higher, > 10000 nM
- c1ccc(CNCC[C@H]2CCO[C@@H](c3ccccc3)O2)cc1 — 8.3-fold higher, 50 nM
- CC[C@]1(c2ccccc2)OCC[C@H](CCNCc2ccccc2)O1 — 4.7-fold higher, 28 nM
- C[C@]1(c2ccccc2)OCC[C@H](CCNCc2ccccc2)O1 — 1.8-fold higher, 11 nM
- CCC[C@@]1(c2ccccc2)OCC[C@@H](CCNCc2ccccc2)O1 — 12-fold higher, 72 nM
- CC(C)(C)[C@]1(c2ccccc2)OCC[C@H](CCN)O1 — higher, > 10000 nM
- CC[C@]1(c2ccccc2)OCC[C@H](CCN)O1 — higher, > 10000 nM
- NCCC1CCOC(c2ccccc2)O1 (racemic) — higher, > 10000 nM
- CCC[C@@]1(c2ccccc2)OCC[C@@H](CCN)O1 — higher, > 10000 nM
- CCC1(c2ccccc2)OCCC(CCN)O1 (racemic) — higher, > 10000 nM
- NCC[C@@H]1CCO[C@H](c2ccccc2)O1 — higher, > 10000 nM
